Common to all, as to format: in vivo
Experiment [1] relates to Lolium perenne (LOLPE). Briefly: B2 Post-emergence herbicidal activity. As to conditions: post-emergence application, rate 1000 g/ha, evaluated after 13 days. The protocol: (§1) Seeds of a variety of test species were sown in standard soil in pots: Triticum aestivium (TRZAW), Avena fatua (AVEFA), Alopecurus myosuroides (ALOMY), Echinochloa crus-galli (ECHCG), Lolium perenne (LOLPE), Zea Mays (ZEAMX), Abutilon theophrasti (ABUTH), Amaranthus retroflexus (AMARE) and Setaria fabenri (SETFA). After 8 days cultivation (post-emergence) under controlled conditions in a glasshouse (at 24/16° C., day/night; 14 hours light; 65% humidity), the plants were sprayed with an aqueous spray solution derived from the formulation of the technical active ingredient in acetone I water (50:50) solution containing 0.5% Tween 20 (polyoxyethelyene sorbitan monolaurate, CAS RN 9005-64-5). The test plants were then grown in a glasshouse under controlled conditions (at 24/16° C., day/night; 14 hours light; 65% humidity) and watered twice daily. After 13 days, the test was evaluated (5=total damage to plant; 0=no damage to plant).

Experiment [2] deals with Alopecurus myosuroides (ALOMY). As to the kind of experiment: B2 Post-emergence herbicidal activity. The arrangement: key: 5=total damage to plant; 0=no damage to plant. The conditions noted are these: post-emergence application, rate 1000 g/ha, evaluated after 13 days. A digest of the protocol: (§2)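 Test seeds are sown in standard soil and raised for 8 days under controlled glasshouse conditions (24/16 °C, 14 h light, 65% humidity). Foliage is then sprayed with compound formulated in 50:50 acetone/water plus 0.5% Tween 20, and plants are rated 0–5 for damage after 13 days.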

For experiment [3], the system named is Triticum aestivium (TRZAW). As to the kind of experiment: B2 Post-emergence herbicidal activity. The arrangement: key: 5=total damage to plant; 0=no damage to plant. The conditions noted are these: post-emergence application, rate 1000 g/ha, evaluated after 13 days. A digest of the protocol:
as §2

The test system of the next experiment is Setaria fabenri (SETFA). As to the kind of experiment: B2 Post-emergence herbicidal activity. As to conditions: post-emergence application, rate 1000 g/ha, evaluated after 13 days. The arrangement: key: 5=total damage to plant; 0=no damage to plant. An outline of the steps: as §2
The test system of experiment [4] is Alopecurus myosuroides (ALOMY). Briefly: B1 Pre-emergence herbicidal activity. More on the design: key: 5=total damage to plant; 0=no damage to plant. As to conditions: pre-emergence application, rate 1000 g/ha, evaluated after 13 days. A digest of the protocol: (§3)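 Sow in soil → 1 d glasshouse (24/16 °C, 14 h light, 65% RH) → spray pre-emergence (acetone/water 50:50, 0.5% Tween 20) → grow 13 d, water twice daily → score 0–5 (5 = total damage).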

Experiment [5] has as its system Triticum aestivium (TRZAW). As to the kind of experiment: B1 Pre-emergence herbicidal activity. The conditions noted are these: pre-emergence application, rate 1000 g/ha, evaluated after 13 days. More on the design: key: 5=total damage to plant; 0=no damage to plant. An outline of the steps: as §3
Experiment [6] concerns Avena fatua (AVEFA). As to the kind of experiment: B1 Pre-emergence herbicidal activity. As to conditions: pre-emergence application, rate 1000 g/ha, evaluated after 13 days. The arrangement: key: 5=total damage to plant; 0=no damage to plant. A digest of the protocol:
as §3

Experiment [7] relates to Echinochloa crus-galli (ECHCG). Briefly: B2 Post-emergence herbicidal activity. The arrangement: key to Post-emergence herbicidal activity, ECHCG (damage score 0-5): 5=total damage to plant; 0=no damage to plant. The conditions noted are these: post-emergence application, rate 1000 g/ha, evaluated after 13 days. A digest of the protocol: as §2
The next experiment relates to Setaria fabenr (SETFA). As to the kind of experiment: B1 Pre-emergence herbicidal activity. More on the design: key to Pre-emergence herbicidal activity, SETFA (damage score 0-5): 5=total damage to plant; 0=no damage to plant. As to conditions: pre-emergence application, rate 1000 g/ha, evaluated after 13 days. An outline of the steps: as §3
Experiment [8] deals with Echinochloa crus-galli (ECHCG). As to the kind of experiment: B1 Pre-emergence herbicidal activity. The arrangement: key to Pre-emergence herbicidal activity, ECHCG (damage score 0-5): 5=total damage to plant; 0=no damage to plant. As to conditions: pre-emergence application, rate 1000 g/ha, evaluated after 13 days. A digest of the protocol: as §3
The test system of experiment [9] is Avena fatua (AVEFA). Briefly: B2 Post-emergence herbicidal activity. The conditions noted are these: post-emergence application, rate 1000 g/ha, evaluated after 13 days. Here is the method: as §1
Experiment [10] concerns Lolium perenne (LOLPE). Briefly: B1 Pre-emergence herbicidal activity. The conditions noted are these: pre-emergence application, rate 1000 g/ha, evaluated after 13 days. An outline of the steps: as §3

In the case of `O=C1CCCCN1c1ccc(-c2cncc(F)c2)nc1C(F)(F)F` [Compound C54, 1-[6-(5-fluoro-3-pyridyl)-2-(trifluoromethyl)-3-pyridyl]piperidin-2-one], the “Post-emergence herbicidal activity, LOLPE (damage score 0-5)” value in the experiment with Lolium perenne (LOLPE) [1] was found to be 3. In addition, the “Post-emergence herbicidal activity, ALOMY (damage score 0-5)” value in [2] came out at 1. The “Post-emergence herbicidal activity, TRAZW (damage score 0-5)” value in experiment [3] is 0. For the same compound, the “Post-emergence herbicidal activity, SETFA (damage score 0-5)” value in the experiment on Setaria fabenri (SETFA) is recorded as 4. In [4], the “Pre-emergence herbicidal activity, ALOMY (damage score 0-5)” value (from here on “Pre-emergence herbicidal activity, ALOMY”) was determined as 0. Moreover, the “Pre-emergence herbicidal activity, TRAZW (damage score 0-5)” value (shortened to “Pre-emergence herbicidal activity, TRAZW”) in experiment [5] is reported as 0. Also, the “Pre-emergence herbicidal activity, AVEFA (damage score 0-5)” value (“Pre-emergence herbicidal activity, AVEFA” below) in the experiment with Avena fatua (AVEFA) [6] amounted to 1. Besides, in experiment [7], the “Post-emergence herbicidal activity, ECHCG (damage score 0-5)” value is on record as 5. For the same compound, the “Pre-emergence herbicidal activity, SETFA (damage score 0-5)” value (from here on “Pre-emergence herbicidal activity, SETFA”) in the experiment on Setaria fabenr (SETFA) turned out to be 3. Further, in [8], the “Pre-emergence herbicidal activity, ECHCG (damage score 0-5)” value (shortened to “Pre-emergence herbicidal activity, ECHCG”) is listed as 2. For the same compound, in the experiment on Avena fatua (AVEFA) [9], the “Post-emergence herbicidal activity, AVEFA (damage score 0-5)” value is recorded as 3. For the same compound, in the experiment on Lolium perenne (LOLPE) [10], the “Pre-emergence herbicidal activity, LOLPE (damage score 0-5)” value (“Pre-emergence herbicidal activity, LOLPE” below) came out at 1.

Consider `CC(=O)N(C(C)=O)c1ccc(-c2cncnc2)nc1C(F)(F)F` [Compound C6], for which the “Post-emergence herbicidal activity, LOLPE (damage score 0-5)” value in the experiment on Lolium perenne (LOLPE) [1] was found to be 4. In experiment [2], the “Post-emergence herbicidal activity, ALOMY (damage score 0-5)” value came out at 1. For the same compound, the “Post-emergence herbicidal activity, TRAZW (damage score 0-5)” value in experiment [3] was determined as 1. The “Post-emergence herbicidal activity, SETFA (damage score 0-5)” value in the experiment with Setaria fabenri (SETFA) is reported as 5. The “Pre-emergence herbicidal activity, ALOMY” value in experiment [4] came to 1. Further, in [5], the “Pre-emergence herbicidal activity, TRAZW” value was determined as 1. In addition, the “Pre-emergence herbicidal activity, AVEFA” value in the experiment on Avena fatua (AVEFA) [6] was found to be 4. Also, in experiment [7], the “Post-emergence herbicidal activity, ECHCG (damage score 0-5)” value is 4. In addition, in the experiment on Setaria fabenr (SETFA), the “Pre-emergence herbicidal activity, SETFA” value worked out at 4. Besides, the “Pre-emergence herbicidal activity, ECHCG” value in experiment [8] is recorded as 4. In addition, in the experiment on Avena fatua (AVEFA) [9], the “Post-emergence herbicidal activity, AVEFA (damage score 0-5)” value is 4. For the same compound, the “Pre-emergence herbicidal activity, LOLPE” value in the experiment with Lolium perenne (LOLPE) [10] stood at 2.

For the compound `O=C(CCC1CCCC1)Nc1ccc(-c2cncc(F)c2)nc1C(F)(F)F` [Compound C53], the “Post-emergence herbicidal activity, LOLPE (damage score 0-5)” value with Lolium perenne (LOLPE) [1] amounted to 4. For the same compound, the “Post-emergence herbicidal activity, ALOMY (damage score 0-5)” value in experiment [2] is given as 0. Besides, the “Post-emergence herbicidal activity, TRAZW (damage score 0-5)” value in experiment [3] was determined as 1. In addition, the “Post-emergence herbicidal activity, SETFA (damage score 0-5)” value in the experiment with Setaria fabenri (SETFA) worked out at 5. Besides, the “Pre-emergence herbicidal activity, ALOMY” value in [4] is 1. For the same compound, the “Pre-emergence herbicidal activity, TRAZW” value in [5] was found to be 0. In the experiment on Avena fatua (AVEFA) [6], the “Pre-emergence herbicidal activity, AVEFA” value was 3. For the same compound, the “Post-emergence herbicidal activity, ECHCG (damage score 0-5)” value in [7] turned out to be 5. In addition, the “Pre-emergence herbicidal activity, SETFA” value with Setaria fabenr (SETFA) turned out to be 4. In addition, the “Pre-emergence herbicidal activity, ECHCG” value in [8] was 5. Moreover, the “Post-emergence herbicidal activity, AVEFA (damage score 0-5)” value in the experiment on Avena fatua (AVEFA) [9] worked out at 4. Moreover, the “Pre-emergence herbicidal activity, LOLPE” value in the experiment on Lolium perenne (LOLPE) [10] stood at 1.

As for `CC(C)=CC(=O)Nc1ccc(-c2cncc(F)c2)nc1C(F)(F)F` [Compound C37], in the experiment on Lolium perenne (LOLPE) [1], the “Post-emergence herbicidal activity, LOLPE (damage score 0-5)” value came out at 2. Also, in [2], the “Post-emergence herbicidal activity, ALOMY (damage score 0-5)” value is given as 0. In addition, in experiment [3], the “Post-emergence herbicidal activity, TRAZW (damage score 0-5)” value came out at 0. The “Post-emergence herbicidal activity, SETFA (damage score 0-5)” value with Setaria fabenri (SETFA) stood at 5. Besides, in experiment [4], the “Pre-emergence herbicidal activity, ALOMY” value is recorded as 0. The “Pre-emergence herbicidal activity, TRAZW” value in experiment [5] is recorded as 0. Besides, the “Pre-emergence herbicidal activity, AVEFA” value in the experiment with Avena fatua (AVEFA) [6] is 1. Further, in experiment [7], the “Post-emergence herbicidal activity, ECHCG (damage score 0-5)” value came out at 5. In the experiment on Setaria fabenr (SETFA), the “Pre-emergence herbicidal activity, SETFA” value stood at 5. For the same compound, the “Pre-emergence herbicidal activity, ECHCG” value in [8] is 4. Further, the “Post-emergence herbicidal activity, AVEFA (damage score 0-5)” value in the experiment with Avena fatua (AVEFA) [9] worked out at 3. For the same compound, the “Pre-emergence herbicidal activity, LOLPE” value with Lolium perenne (LOLPE) [10] is listed as 1.

The values are drawn from patent US11230538B2, “Herbicides” (SYNGENTA PARTICIPATIONS AG, priority 2016, dated 2022).
